Several values for one entry are separate records, joined by “and”; a condition that tells them apart may be missing. Equal values may be shown once.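 Five compound concentrations were applied to cells in 96-well plates for 48 hours; endpoints were derived by simple linear interpolation of the resulting dose-response curve. Here, GI50 denotes the concentration required for 50% inhibition of growth. TGI marks complete inhibition of growth.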
Tests used:
Test in all cases: growth of human tumour cells (NCI), 48 h
CAKI-1 renal = tested on: CAKI-1 renal
A549 NSCLC = tested on: A549 NSCLC
NCI-H460 lung = tested on: NCI-H460 lung
RXF 393 renal = tested on: RXF 393 renal
KM12 colon = tested on: KM12 colon
MALME-3M melanoma = tested on: MALME-3M melanoma
HL-60(TB) leukemia = tested on: HL-60(TB) leukemia
NCI-H23 lung = tested on: NCI-H23 lung

SMILES	GI50 (CAKI-1 renal)	TGI (CAKI-1 renal) [µM]	GI50 (A549 NSCLC)	TGI (A549 NSCLC)	GI50 (NCI-H460 lung)	TGI (NCI-H460 lung)	GI50 (RXF 393 renal)	TGI (RXF 393 renal)	GI50 (KM12 colon)	TGI (KM12 colon)	GI50 (MALME-3M melanoma)	TGI (MALME-3M melanoma)	GI50 (HL-60(TB) leukemia)	TGI (HL-60(TB) leukemia)	GI50 (NCI-H23 lung)	TGI (NCI-H23 lung)
O=c1[nH]c(-c2ccncc2)nc2sc3c(c12)CCCCCC3	> 100 µM	> 100	> 100 µM	> 100 µM	> 100 µM	> 100 µM	> 100 µM	> 100 µM	> 100 µM	> 100 µM	> 100 µM	> 100 µM	> 100 µM	> 100 µM	> 100 µM	> 100 µM
COc1cc(F)c(F)c(F)c1C(=O)c1cnc(NC2CCN(S(C)(=O)=O)CC2)nc1N	0.843 µM	10.8	1 µM	> 25 µM	0.428 µM	> 25 µM	0.534 µM	1.98 µM	0.958 µM	> 14.4 µM	3.95 µM	11.3 µM	0.244 µM	6.31 µM	1.24 µM	14.8 µM
CN(C)CCCn1c2c(c3ccc(N4CCNCC4)cc3c1=O)C(=O)c1ccccc1-2	1.05 µM	4.52	0.224 µM	2.23 µM	0.307 µM	1.56 µM	1.29 µM	2.9 µM	1.13 µM	3.07 µM	1.42 µM	3.46 µM	1.17 µM	3.05 µM	1.05 µM	2.64 µM
C/C=C/C(C/C=C(\C)CO[Si](C)(C)C(C)(C)C)O[Si](C)(C)C(C)(C)C (configuration not stated)	–	> 100	–	> 100 µM	–	> 100 µM	–	> 100 µM	–	> 100 µM	–	> 100 µM	–	> 100 µM	–	> 100 µM
OC1(c2ccccc2)c2ccccc2N(c2ccccc2)c2ccc(Cl)cc21 (configuration not stated)	0.257 µM	0.779	0.332 µM	1.3 µM	0.246 µM	0.568 µM	0.185 µM	0.472 µM	0.296 µM	0.845 µM	0.237 µM	0.643 µM	0.251 µM	0.739 µM	0.32 µM	1.38 µM
Cc1n[nH]c(C)c1-c1c(C)n[nH]c1C	1.54 µM	3.13	1.68 µM	4.35 µM	1.82 µM	3.85 µM	1.52 µM	3.07 µM	1.8 µM	3.97 µM	1.7 µM	4.05 µM	2.26 µM	6.95 µM	1.74 µM	3.47 µM
FC(F)(F)c1ccc(-c2cnc(-c3nn[nH]n3)nc2NC2CCCCCC2)cc1	> 10 µM	> 10	> 10 µM	> 10 µM	> 10 µM	> 10 µM	> 10 µM	> 10 µM	> 10 µM	> 10 µM	> 10 µM	> 10 µM	> 10 µM	> 10 µM	> 10 µM	> 10 µM
CCOc1ccc(-c2nc3ccc(-c4nc5ccc(N6CCN(C)CC6)cc5[nH]4)cc3[nH]2)cc1OCC	2.71 µM	17.6	8.34 µM	28.5 µM	3.14 µM	10.4 µM	1.14 µM	2.49 µM	3.88 µM	15.8 µM	0.222 µM	1.23 µM	1.16 µM	4.7 µM	1.52 µM	4.45 µM
C=C(C)[C@@H]1CC[C@]2(C(=O)OC)CC[C@]3(C)[C@H](CC[C@@H]4[C@@]5(C)CC/C(=N\OCCC(=NCCC#N)NOCCC#N)C(C)(C)[C@@H]5CC[C@]43C)[C@@H]12	10.2 µM	> 50	5.27 µM	> 50 µM	11.1 µM	> 50 µM	5.64 µM	16.6 µM	9.35 µM	> 50 µM	11.8 µM	> 50 µM	5.18 µM	24.9 µM	7.59 µM	> 50 µM
CC(=O)Nc1ccc(S(=O)(=O)N2C(=O)CCC2C(=O)Nc2ccccc2)cc1 (configuration not stated)	0.46 µM	17.5	0.721 µM	19.2 µM	0.359 µM	15.3 µM	3.48 µM	13.9 µM	0.214 µM	11.3 µM	3.38 µM	18.8 µM	1.64 µM	15.2 µM	2.23 µM	18.6 µM
N/C(=N\O)c1cn(C2OC(CO)C(O)C2O)c2ncnc(N)c12 (configuration not stated)	0.132 µM	13.1	0.126 µM	20.1 µM	0.138 µM	0.987 µM	0.169 µM	0.722 µM	0.188 µM	–	0.0578 µM	0.243 µM	0.117 µM	0.858 µM	0.229 µM	5.18 µM
CN1CC[C@H](N(C)C(=O)N2CC(c3cc(F)ccc3F)=C[C@@]2(CO)c2ccccc2)[C@H](F)C1	0.0459 µM	> 100	0.0383 µM	> 100 µM	0.0308 µM	> 100 µM	0.0052 µM	5.13 µM	0.0277 µM	> 100 µM	–	27.9 µM	0.0337 µM	> 100 µM	0.0371 µM	> 100 µM
O=C(N=Nc1c(O)[nH]c2c(Cl)cc(Cl)cc12)C(=O)Nc1cccc(C(F)(F)F)c1	–	> 100	–	> 100 µM	–	> 100 µM	–	> 100 µM	–	> 100 µM	–	> 100 µM	–	> 100 µM	–	> 100 µM
Nc1nc(-c2ccccn2)c(-c2ccc3ncccc3n2)s1	> 25 µM	> 25	> 25 µM	> 25 µM	> 25 µM	> 25 µM	> 25 µM	> 25 µM	> 25 µM	> 25 µM	> 25 µM	> 25 µM	> 25 µM	> 25 µM	> 25 µM	> 25 µM
Nc1c2ccccc2nc2ccccc12	1.96 µM and 2.11 µM	5.96	1.52 µM and 2.87 µM	3.94 µM and 8.81 µM	1.44 µM and 2.5 µM	5.17 µM and 6.88 µM	1.1 µM and 2.31 µM	2.77 µM and 6.57 µM	2.04 µM and 3.27 µM	7.58 µM and 14 µM	1.86 µM and 3.69 µM	3.66 µM and 9.62 µM	3.05 µM and 1.85 µM	6.99 µM and 10 µM	1.8 µM and 3.18 µM	5.49 µM and 15.4 µM

— PubChem BioAssay (NCI)
